The text below walks through data of PubChem BioAssay AID1259411 (Chemical Carcinogenesis Research Information System (CCRIS), 2018).

Active and inactive are the calls of the source. How the calls were made is not given here.

This series deals with rodent carcinogenicity bioassays, tumor incidence. The series can be described thus: CCRIS carcinogenicity studies. In outline:
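NCI-built, expert-reviewed records of carcinogenicity and related test outcomes (mutagenicity, tumor promotion/inhibition) compiled from published and report sources, historical span 1985-2011, not updated.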

In the case of `Clc1ccc(Cl)cc1`, the carcinogen call is, setting by setting: (Species: MOUSE, Strain/Sex: B6C3F1/FEMALE, Route: GAVAGE, Dose: 0, 300, 600 MG/KG IN CORN OIL 5 D/WK FOR 103 WK, Dose: 0, 300, 600 MG/KG IN CORN OIL 5 D/WK FOR 103 WK, Tumor Site: Type of Lesion: LIVER: HEPATOCELLULAR ADENOMA, HEPATOCELLULAR CARCINOMA) “active; positive”; (Species: MOUSE, Strain/Sex: B6C3F1/MALE, Route: GAVAGE, Dose: 0, 300, 600 MG/KG IN CORN OIL 5 D/WK FOR 103 WK, Dose: 0, 300, 600 MG/KG IN CORN OIL 5 D/WK FOR 103 WK, Tumor Site: Type of Lesion: LIVER: HEPATOCELLULAR ADENOMA, HEPATOCELLULAR CARCINOMA) “active; positive”; (Species: MOUSE, Strain/Sex: CRJ:BDF1/FEMALE, Route: INHALATION, Dose: 0, 20, 75, 300 PPM 6 HR/D, 5 D/WK FOR 2 YRS (STUDY DURATION: 2 YRS), Dose: 0, 20, 75, 300 PPM 6 HR/D, 5 D/WK FOR 2 YRS (STUDY DURATION: 2 YRS), Tumor Site: Type of Lesion: LIVER: HEPATOCELLULAR ADENOMA, LIVER: HEPATOCELLULAR CARCINOMA, LIVER: HEPATOBLASTOMA, Tumor Site: Type of Lesion: LIVER: HEPATOCELLULAR ADENOMA, LIVER: HEPATOCELLULAR CARCINOMA, LIVER: HEPATOBLASTOMA) “active; positive”; (Species: MOUSE, Strain/Sex: CRJ:BDF1/MALE, Route: INHALATION, Dose: 0, 20, 75, 300 PPM 6 HR/D, 5 D/WK FOR 2 YRS (STUDY DURATION: 2 YRS), Dose: 0, 20, 75, 300 PPM 6 HR/D, 5 D/WK FOR 2 YRS (STUDY DURATION: 2 YRS), Tumor Site: Type of Lesion: LIVER: HEPATOCELLULAR CARCINOMA, LIVER: HEPATOBLASTOMA, HISTIOCYTIC SARCOMA, Tumor Site: Type of Lesion: LIVER: HEPATOCELLULAR CARCINOMA, LIVER: HEPATOBLASTOMA, HISTIOCYTIC SARCOMA) “active; positive”; (Species: RAT, Strain/Sex: F344/FEMALE, Route: GAVAGE, Dose: 0, 300, 600 MG/KG IN CORN OIL 5 D/WK FOR 103 WK, Dose: 0, 300, 600 MG/KG IN CORN OIL 5 D/WK FOR 103 WK) “inactive; negative”; (Species: RAT, Strain/Sex: F344/MALE, FEMALE, Route: INHALATION, Dose: 0, 20, 75, 300 PPM 6 HR/D, 5 D/WK FOR 2 YRS (STUDY DURATION: 2 YRS), Dose: 0, 20, 75, 300 PPM 6 HR/D, 5 D/WK FOR 2 YRS (STUDY DURATION: 2 YRS)) “inactive; negative”. Also, for the setting “Species: RAT, Strain/Sex: F344/MALE, Route: GAVAGE, Dose: 0, 150, 300 MG/KG IN CORN OIL 5 D/WK FOR 103 WK, Dose: 0, 150, 300 MG/KG IN CORN OIL 5 D/WK FOR 103 WK, Tumor Site: Type of Lesion: KIDNEY: TUBULAR CELL ADENOCARCINOMA, TUBULAR CELL ADENOMA OR ADENOCARCINOMA”, the carcinogen call was “active; positive”.
Take `C/[N+]([O-])=N/CO[C@@H]1O[C@H](CO)[C@@H](O)[C@H](O)[C@H]1O`: the carcinogen call runs as follows: (Species: GUINEA PIG, Route: ORAL, Dose: 0, 5% IN DIET OF CYCAD MEAL, 2-3 5-D PERIODS, Tumor Site: Type of Lesion: LIVER: HEPATOCELLULAR CARCINOMA, BILE DUCT) “active; positive”; (Species: GUINEA PIG, Route: ORAL, Tumor Site: Type of Lesion: LIVER, BILE DUCT) “active; positive”; (Species: HAMSTER, Route: GAVAGE, Dose: 0.1, 0.15 MG/G BW, SINGLE DOSE, Tumor Site: Type of Lesion: LIVER: HEPATOCELLULAR ADENOMA, BILE DUCT: CARCINOMA, HEMANGIOENDOTHELIAL SARCOMA, LUNG: ADENOMA, INTESTINES, KIDNEY: CAR, Tumor Site: Type of Lesion: LIVER: HEPATOCELLULAR ADENOMA, BILE DUCT: CARCINOMA, HEMANGIOENDOTHELIAL SARCOMA, LUNG: ADENOMA, INTESTINES, KIDNEY: CAR) “active; positive”; (Species: HAMSTER, Route: ORAL, Tumor Site: Type of Lesion: LIVER, LUNG, INTESTINES, KIDNEY, Tumor Site: Type of Lesion: LIVER, LUNG, INTESTINES, KIDNEY) “active; positive”; (Species: HAMSTER, Route: SUBCUTANEOUS, Tumor Site: Type of Lesion: LIVER) “active; positive”; (Species: MONKEY, Strain/Sex: AFRICAN GREEN, Route: ORAL, Dose: 0, 3% (50-75 MG/KG) IN DIET OF CRUDE CYCAD MEAL, 5 D/WK FOR UP TO 11 YR, Tumor Site: Type of Lesion: UNSPECIFIED: NEOPLASM) “active; positive”. The carcinogen call (Species: MONKEY, Strain/Sex: CYNOMOLGUS, Route: ORAL, Dose: 0, 3% (50-75 MG/KG) IN DIET OF CRUDE CYCAD MEAL, 5 D/WK FOR UP TO 11 YR, Tumor Site: Type of Lesion: UNSPECIFIED: NEOPLASM) is “active; positive”; the carcinogen call (Species: MONKEY, Strain/Sex: RHESUS, Route: ORAL, Dose: 0, 3% (50-75 MG/KG) IN DIET OF CRUDE CYCAD MEAL, 5 D/WK FOR UP TO 11 YR, Tumor Site: Type of Lesion: UNSPECIFIED: NEOPLASM) is “active; positive”; the carcinogen call (Species: MOUSE, Route: SUBCUTANEOUS, Tumor Site: Type of Lesion: LIVER, LUNG) was “active; positive”; the carcinogen call (Species: RABBIT, Route: ORAL, Tumor Site: Type of Lesion: LIVER) is “active; positive”; the carcinogen call (Species: RAT, Route: ORAL, Tumor Site: Type of Lesion: INTESTINES, KIDNEY, LIVER, Tumor Site: Type of Lesion: INTESTINES, KIDNEY, LIVER) is “active; positive”; the carcinogen call (Species: RAT, Route: SUBCUTANEOUS, Tumor Site: Type of Lesion: KIDNEY, INTESTINES, LIVER, Tumor Site: Type of Lesion: KIDNEY, INTESTINES, LIVER) was “active; positive”. The carcinogen call runs as follows: (Species: RAT, Strain/Sex: SPRAGUE-DAWLEY/MALE,FEMALE, Route: GAVAGE, Dose: 3 ML/KG BW CYCAD EXTRACT, 1/WK FOR 12 WK, Tumor Site: Type of Lesion: INTESTINES) “active; positive”; (Species: RAT, Strain/Sex: SPRAGUE-DAWLEY/MALE,FEMALE, Route: RECTAL, Dose: 50 MG/KG BW INTO INTESTINE 1/WK FOR 12 WK, Tumor Site: Type of Lesion: INTESTINES) “active; positive”; (Species: RAT, Strain/Sex: SPRAGUE-DAWLEY/MALE, Route: GAVAGE, Dose: 80, 250 MG/KG, SINGLE DOSE, Tumor Site: Type of Lesion: INTESTINES (COLON OR RECTUM), INTESTINES (JEJUNUM OR ILEUM), DUODENUM, Tumor Site: Type of Lesion: INTESTINES (COLON OR RECTUM), INTESTINES (JEJUNUM OR ILEUM), DUODENUM) “active; positive”; (Species: RAT, Strain/Sex: SPRAGUE-DAWLEY/MALE, Route: GAVAGE, Dose: 80 MG/KG, 1/WK FOR 15 WK, Tumor Site: Type of Lesion: INTESTINES (COLON OR RECTUM), INTESTINES (JEJUNUM OR ILEUM)) “active; positive”.
For `O=C(O)C1=NN(c2ccc(S(=O)(=O)O)cc2)C(=O)C1N=Nc1ccc(S(=O)(=O)O)cc1` (configuration not stated), the carcinogen call reads like this: (Species: MOUSE, Strain/Sex: ICR/FEMALE, Route: DERMAL, Dose: 0, 1 MG IN 0.1 ML DISTILLED WATER 2/WK FOR A MEAN TOTAL DOSE OF 133.4 MG (STUDY DURATION: 18 MO)) “inactive; negative”; (Species: MOUSE, Strain/Sex: ICR/MALE, Route: DERMAL, Dose: 0, 1 MG IN 0.1 ML DISTILLED WATER 2/WK FOR A MEAN TOTAL DOSE OF 133.4 MG (STUDY DURATION: 18 MO)) “inactive; negative”; (Species: RAT, Strain/Sex: F344/FEMALE, Route: ORAL, Dose: 0, 1, 2% IN DRINKING WATER FOR 104 WK (STUDY DURATION: 112 WK), Dose: 0, 1, 2% IN DRINKING WATER FOR 104 WK (STUDY DURATION: 112 WK)) “inactive; negative”; (Species: RAT, Strain/Sex: F344/MALE, Route: ORAL, Dose: 0, 1, 2% IN DRINKING WATER FOR 104 WK (STUDY DURATION: 112 WK), Dose: 0, 1, 2% IN DRINKING WATER FOR 104 WK (STUDY DURATION: 112 WK)) “inactive; negative”.
`ClC[C@@H]1O[C@@H]1Cl`: the carcinogen call was “active; positive” (Species: MOUSE, Strain/Sex: ICR/FEMALE, Route: DERMAL, Dose: 10 MG IN 0.1 ML ACETONE 3/WK FOR LIFE, Tumor Site: Type of Lesion: INTEGUMENTARY SYSTEM (SKIN): PAPILLOMA, SQUAMOUS CELL CARCINOMA) and “active; positive” (Species: MOUSE, Strain/Sex: ICR/FEMALE, Route: SUBCUTANEOUS, Dose: 500 UG IN 0.05 ML TRICAPRYLIN 1/WK FOR LIFE, Tumor Site: Type of Lesion: INJECTION SITE: FIBROSARCOMA).
On to `NC(Cc1cnc[nH]1)C(=O)O` (configuration not stated), for which the carcinogen call was “inactive; negative” (Species: RAT, Strain/Sex: F344/FEMALE, Route: ORAL, Dose: 0, 1.25, 2.5% IN DIET FOR 104 WK (STUDY DURATION: 107 WK), Dose: 0, 1.25, 2.5% IN DIET FOR 104 WK (STUDY DURATION: 107 WK)) and “inactive; negative” (Species: RAT, Strain/Sex: F344/MALE, Route: ORAL, Dose: 0, 1.25, 2.5% IN DIET FOR 104 WK (STUDY DURATION: 107 WK), Dose: 0, 1.25, 2.5% IN DIET FOR 104 WK (STUDY DURATION: 107 WK)).
With `CC(C)(Oc1ccc(C2CC2(Cl)Cl)cc1)C(=O)O` (configuration not stated), the carcinogen call (Species: RAT, Strain/Sex: F344/MALE, Route: ORAL, Dose: 10 MG/KG IN DIET FOR 60 WK, Tumor Site: Type of Lesion: LIVER: HEPATOCELLULAR CARCINOMA) was “active; positive”.
